Experimental data from patent US20090274577A1, “STE[…] TREATMENT WITH REDUCTANT AND OXIDANT” (priority 2008, published 2009).

Tested on: Bacillus atrophaeus spores
Assay: Filtering test: spores incubated in test solution, filtered, filter half treated with ozone, colonies counted
Format: cell-based
Description: Bacterial spores: Stainless steel discs with Bacillus atrophaeus spores (log 6, cat #1-6100ST, Raven Biological Laboratories).
An ozone generator provided ˜350 ppm O3, and a flow rate of ˜25 l/min, using setting No. 1.
Commercially available sterile single filters (pore size 0.45 μm) and an analytical test filter funnel from Nalgene was used (F-2161, Sigma-Aldrich). For suction, a Rietschle Thomas DTF 6 vacuum pump was used, with a flow rate of ˜6 m3/h, providing a vacuum of ˜150 mbar abs.
Filtering test: In filtering test experiments the spore solutions were prepared in a volume of 1 ml and processed. Thereto, after an incubation period of 5 min in the appropriate buffer at 40° C. using a rotary shaker, an aliquot of 250 μl of the suspension was transferred onto a sterile single use filters. The filter was washed two times with 10 ml of sterile water. The filter was retrieved under sterile conditions, and the filter was cut into halves using a sterile scissor. Only one half of the filter was treated with ozone, while the other half was kept as control, i.e. without ozone treatment. Finally, both halves were placed onto a TSA plate and incubated at 30° C. Initially Nutrient Agar plates were used, but later on a switch was made to TSA plates, in order to utilize the more pronounced reddish colour of Bacillus atrophaeus colonies which was facilitating analysis and documentation. […]

OC(CS)C(O)CS (racemic) [DTT, DL-dithiotreitol]
reduction of viability of Bacillus atrophaeus (liquid media comprising reductant, then sterile air with ~350 ppm ozone for 5 or 10 min): 3-5 logs | sterilizing/disinfecting/killing effect (in words) (test solution followed by ~350 ppm ozone, 5 or 10 min): improved
